Laboratory results published in paper PMC6222558, “Synthesis and Evolution of Berberine Derivatives as a New Class of Antiviral Agents against Enterovirus 71 through the MEK/ERK Pathway and Autophagy” (Molecules : A Journal of Synthetic Chemistry and Natural …, 2018).
pIC50: −log10 of the molar value.

Key:
[1] = tested on: Vero cells; assay: Cytotoxicity assay (CCK) in Vero cells; type: cell-based, African green monkey
In short: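 Vero cells seeded at 3 × 10^4 cells/well were exposed overnight-plated to a range of compound concentrations in duplicate for 48 h. Viability was measured by CCK at 450 nm. TC50 is the concentration giving 50% growth inhibition versus controls, calculated by the Reed and Muench method.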

[2] = tested on: EV71 H strain (VR-1432, genotype C2); assay: CPE inhibition assay for anti-EV71, H strain; type: cell-based, enterovirus 71 (EV71); details: Enterovirus A, EV71; Vero cells; CPE; calculated on the organic part; n = 3; read-out: H Strain IC50
In short: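 Vero cells infected with 100 × TCID50 EV71 for 1 h at 37 °C in serum-free medium, unbound virus removed, then compounds added for 72 h. IC50 from inhibition of virus-induced CPE; TC50 as concentration giving 50% CPE at 72 h, with selectivity index; crystal violet staining for imaging.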

[3] = tested on: EV71 VP1 RNA; assay: EV71 VP1 RNA by one-step qRT-PCR in infected Vero cells; type: cell-based, enterovirus 71 (EV71); details: Vero cells infected with H strain; 24 h; better than BBR
Method: (§1) To further confirm the anti-EV71 activity, the VP1 down-regulatory activity of 2d was examined in Vero cells infected with H strain of EV71, in comparison with that of BBR. […] Accordingly, VP1 capsid protein expression was also analyzed to examine its effect on EV71 biological synthesis.
Vero cells (9 × 10^5 cells/well) were plated into 6-well culture plates and incubated for 16 h. The medium was removed and cells were infected with EV71 for 1 h (H). Various concentrations of compound 2d and BBR were supplemented for incubation of another 24 h. Total RNA of the infected cells was isolated using the RNeasy Mini kit (QIAGEN, Hilden, Germany) and the information of the primer was listed in the Table 2.
One-step qRT-PCR was performed with SuperScript III Platinum SYBR Green One-step RT-PCR Kit (Invitrogen, Carlsbad, CA, USA) using the ABI 7500 Fast real-time PCR system (Applied Biosystems, Carlsbad, CA, USA). PCR assay was carried out in a 25 μL volume and the target fragment amplification was carried out as follows: reverse transcription at 50 °C for 3 min; initial activation of HotStar Taq DNA Polymerase at 95 °C for 10 min; 40 cycles in two steps: 95 °C for 15 s, 60 °C for 30 s.

[4] = tested on: EV71 VP1 protein; assay: EV71 VP1 protein by western blot in infected Vero cells; type: cell-based, enterovirus 71 (EV71); details: Vero cells infected with H strain; better than BBR at 40 μM
Method: as §1
Cells were lysed in the M-PER mammalian protein extraction reagent (Thermo, Rockford, IL, USA) containing halt protease inhibitor single-use cocktail (Thermo). The protein concentration was determined by BCA Protein Assay Kit (Thermo). Equal amount of samples (15 μg proteins) were denatured and applied to sodium dodecyl sulfate-polyacrylamide gel electrophoresis (SDS-PAGE), and then electrophoresis products were transferred to a polyvinylidenefluoride (PVDF) film and blocked by 5% (w/v) milk or BSA at room temperature. An hour later, PVDF membranes were incubated at room temperature with specific primary antibody. After a standard washing, membranes were incubated with horse radish peroxidase (HRP)-labeled secondary antibody. The signals were detected using ECL detection kit (GE Healthcare Life Sciences, Pittsburgh, PA, USA). The primary antibodies used in the experiment included β-actin, p-p44/p42 MAPK, p44/p42 MAPK, p-MEK, MEK, p-JNK, JNK, p-AKT, AKT, PI3KIII, LC3B, Beclin-1 (Cell Signaling Technology, Danvers, MA, USA), and EV71-VP1 (Abnova, Taibei, China). […]

## COc1ccc2cc3[n+](cc2c1OCC(=O)OCc1ccccc1)CCc1cc2c(cc1-3)OCO2 [2d, 2,3-Methylenedioxy-9-benzyloxyformylmethylenoxy-10-methoxyprotoberberine chloride]
[1]
  cytotoxicity, in words: lower cytotoxicity
[1]; African green monkey, 48 h
  TC50 (median toxic concentration): 82.8 µM
[2]
  pIC50: 4.91
[3]
  VP1 RNA expression: significantly reduced VP1 RNA expression in a dose-dependently way
[4]
  VP1 protein expression: obviously down-regulate the expression of VP1 protein in a dose-dependent manner
